Earlier results, collected in patent US5668151A, “Dihydropyridine NPY antagonists: piperidine derivatives” (Bristol-Myers Squibb Company, priority 1996, dated 1997).

Tests used:
[1] = tested on: NPY-induced Ca++ entry in HEL cells

Compound | effect on the vasoconstrictive activity of the NPY1 agonist [Leu31, Pro34]NPY (rat femoral artery) | effect on the NPY2 agonist NPY13-36 (rat femoral artery; Y2 receptor functional selectivity) | pA2 [1]
N=C(N)N(CCCCCCNCc1ccc2ccccc2c1)CCCCCCN(CCCCCCNCc1ccc2ccccc2c1)C(=N)N [Example 6b] | no effect | antagonized | –
N=C(NCCCc1cnc[nH]1)NCCC(c1cc(F)cc(F)c1)c1ccccn1 (stereo not drawn) [He 90481] | – | – | 4.43
